Results reported in ChEMBL document CHEMBL3044810, “Synthesis and herbicidal activity of alkyl 1-(3-trifluoromethylphenoxyacetoxy)-1-substituted methylphosphonates” (J Pestic Sci, 2007).

Tested on: Cucumis sativus
Test: Pre-emergence growth inhibition of Cucumis sativus (cucumber) under green house conditions
Assay type: functional, organism-based

SMILES | IC50 [µg/g]
COP(=O)(OC)C(C)OC(=O)COc1cccc(Cl)c1Cl (stereo unspecified) | 74.11
COP(=O)(OC)C(C)OC(=O)COc1cccc(F)c1 (stereo unspecified) | 111.13
COP(=O)(OC)C(C)OC(=O)COc1ccc(F)cc1F (stereo unspecified) | 0.59
COP(=O)(OC)C(C)OC(=O)COc1cc(F)cc(F)c1 (stereo unspecified) | 93.5
COP(=O)(OC)C(OC(=O)COc1cccc(C(F)(F)F)c1)c1ccc(C)cc1 (stereo unspecified) | 4.04
COP(=O)(OC)C(OC(=O)COc1cccc(C(F)(F)F)c1)c1ccccc1Cl (stereo unspecified) | 3.57
COP(=O)(OC)C(OC(=O)COc1cccc(C(F)(F)F)c1)c1ccc(Cl)cc1 (stereo unspecified) | 3.16
COP(=O)(OC)C(OC(=O)COc1ccc([N+](=O)[O-])cc1)c1ccccc1 (stereo unspecified) | 223
COP(=O)(OC)C(C)OC(=O)COc1ccccc1 (stereo unspecified) | 89.1
CCOP(=O)(OCC)C(OC(=O)COc1cccc(C(F)(F)F)c1)c1ccc2c(c1)OCO2 (stereo unspecified) | 5.91

Tested on: Digitaria sanguinalis
Test: Post-emergence herbicidal activity against Digitaria sanguinalis (hairy crabgrass) assessed as growth inhibition at 1.5 ai kg/ha under green house conditions
Assay type: functional

SMILES | growth inhibition (GI) [%]
COP(=O)(OC)C(C)OC(=O)COc1cccc(Cl)c1Cl (stereo unspecified) | 35.5
COP(=O)(OC)C(C)OC(=O)COc1cccc(F)c1 (stereo unspecified) | 22.7
COP(=O)(OC)C(C)OC(=O)COc1ccc(F)cc1F (stereo unspecified) | 48.5
COP(=O)(OC)C(C)OC(=O)COc1cc(F)cc(F)c1 (stereo unspecified) | 27.2
COP(=O)(OC)C(OC(=O)COc1cccc(C(F)(F)F)c1)c1ccc(C)cc1 (stereo unspecified) | 0
COP(=O)(OC)C(OC(=O)COc1cccc(C(F)(F)F)c1)c1ccccc1Cl (stereo unspecified) | 36
COP(=O)(OC)C(OC(=O)COc1cccc(C(F)(F)F)c1)c1ccc(Cl)cc1 (stereo unspecified) | 12
COP(=O)(OC)C(OC(=O)COc1ccc([N+](=O)[O-])cc1)c1ccccc1 (stereo unspecified) | -5.2
COP(=O)(OC)C(C)OC(=O)COc1ccccc1 (stereo unspecified) | 0
CCOP(=O)(OCC)C(OC(=O)COc1cccc(C(F)(F)F)c1)c1ccc2c(c1)OCO2 (stereo unspecified) | 24

Tested on: Brassica napus
Test: Pre-emergence herbicidal activity against Brassica napus (oilseed rape) assessed as growth inhibition at 1.5 ai kg/ha under green house conditions
Assay type: functional

SMILES | growth inhibition (GI) [%]
COP(=O)(OC)C(C)OC(=O)COc1cccc(Cl)c1Cl (stereo unspecified) | 0
COP(=O)(OC)C(C)OC(=O)COc1cccc(F)c1 (stereo unspecified) | 0
COP(=O)(OC)C(C)OC(=O)COc1ccc(F)cc1F (stereo unspecified) | 39.3
COP(=O)(OC)C(C)OC(=O)COc1cc(F)cc(F)c1 (stereo unspecified) | 0
COP(=O)(OC)C(OC(=O)COc1cccc(C(F)(F)F)c1)c1ccc(C)cc1 (stereo unspecified) | 50.4
COP(=O)(OC)C(OC(=O)COc1cccc(C(F)(F)F)c1)c1ccccc1Cl (stereo unspecified) | 61
COP(=O)(OC)C(OC(=O)COc1cccc(C(F)(F)F)c1)c1ccc(Cl)cc1 (stereo unspecified) | 38.6
COP(=O)(OC)C(OC(=O)COc1ccc([N+](=O)[O-])cc1)c1ccccc1 (stereo unspecified) | -2.78
COP(=O)(OC)C(C)OC(=O)COc1ccccc1 (stereo unspecified) | 7.1
CCOP(=O)(OCC)C(OC(=O)COc1cccc(C(F)(F)F)c1)c1ccc2c(c1)OCO2 (stereo unspecified) | 12.6

Tested on: Echinochloa crus-galli
Test: Pre-emergence herbicidal activity against Echinochloa crus-galli (barnyard grass) assessed as growth inhibition at 1.5 ai kg/ha under green house conditions
Assay type: functional

SMILES | growth inhibition (GI) [%]
COP(=O)(OC)C(C)OC(=O)COc1cccc(Cl)c1Cl (stereo unspecified) | 19.1
COP(=O)(OC)C(C)OC(=O)COc1cccc(F)c1 (stereo unspecified) | 4.4
COP(=O)(OC)C(C)OC(=O)COc1ccc(F)cc1F (stereo unspecified) | 36
COP(=O)(OC)C(C)OC(=O)COc1cc(F)cc(F)c1 (stereo unspecified) | 0
COP(=O)(OC)C(OC(=O)COc1cccc(C(F)(F)F)c1)c1ccc(C)cc1 (stereo unspecified) | 80.4
COP(=O)(OC)C(OC(=O)COc1cccc(C(F)(F)F)c1)c1ccccc1Cl (stereo unspecified) | 54
COP(=O)(OC)C(OC(=O)COc1cccc(C(F)(F)F)c1)c1ccc(Cl)cc1 (stereo unspecified) | 84.2
COP(=O)(OC)C(OC(=O)COc1ccc([N+](=O)[O-])cc1)c1ccccc1 (stereo unspecified) | 0.8
COP(=O)(OC)C(C)OC(=O)COc1ccccc1 (stereo unspecified) | 0
CCOP(=O)(OCC)C(OC(=O)COc1cccc(C(F)(F)F)c1)c1ccc2c(c1)OCO2 (stereo unspecified) | 80.4

Tested on: Amaranthus retroflexus
Test: Pre-emergence herbicidal activity against Amaranthus retroflexus assessed as growth inhibition at 1.5 ai kg/ha under green house conditions
Assay type: functional

SMILES | growth inhibition (GI) [%]
COP(=O)(OC)C(C)OC(=O)COc1cccc(Cl)c1Cl (stereo unspecified) | 16.7
COP(=O)(OC)C(C)OC(=O)COc1cccc(F)c1 (stereo unspecified) | 0
COP(=O)(OC)C(C)OC(=O)COc1ccc(F)cc1F (stereo unspecified) | 38.9
COP(=O)(OC)C(C)OC(=O)COc1cc(F)cc(F)c1 (stereo unspecified) | 0
COP(=O)(OC)C(OC(=O)COc1cccc(C(F)(F)F)c1)c1ccc(C)cc1 (stereo unspecified) | 100
COP(=O)(OC)C(OC(=O)COc1cccc(C(F)(F)F)c1)c1ccccc1Cl (stereo unspecified) | 100
COP(=O)(OC)C(OC(=O)COc1cccc(C(F)(F)F)c1)c1ccc(Cl)cc1 (stereo unspecified) | 100
COP(=O)(OC)C(C)OC(=O)COc1ccccc1 (stereo unspecified) | 0
CCOP(=O)(OCC)C(OC(=O)COc1cccc(C(F)(F)F)c1)c1ccc2c(c1)OCO2 (stereo unspecified) | 95.5

Tested on: Amaranthus retroflexus
Test: Post-emergence herbicidal activity against Amaranthus retroflexus assessed as growth inhibition at 1.5 ai kg/ha under green house conditions
Assay type: functional

SMILES | growth inhibition (GI) [%]
COP(=O)(OC)C(C)OC(=O)COc1cccc(Cl)c1Cl (stereo unspecified) | 43.8
COP(=O)(OC)C(C)OC(=O)COc1cccc(F)c1 (stereo unspecified) | 0
COP(=O)(OC)C(C)OC(=O)COc1ccc(F)cc1F (stereo unspecified) | 77.5
COP(=O)(OC)C(C)OC(=O)COc1cc(F)cc(F)c1 (stereo unspecified) | 14.9
COP(=O)(OC)C(OC(=O)COc1cccc(C(F)(F)F)c1)c1ccc(C)cc1 (stereo unspecified) | 96.2
COP(=O)(OC)C(OC(=O)COc1cccc(C(F)(F)F)c1)c1ccccc1Cl (stereo unspecified) | 100
COP(=O)(OC)C(OC(=O)COc1cccc(C(F)(F)F)c1)c1ccc(Cl)cc1 (stereo unspecified) | 88.5
COP(=O)(OC)C(C)OC(=O)COc1ccccc1 (stereo unspecified) | 5
CCOP(=O)(OCC)C(OC(=O)COc1cccc(C(F)(F)F)c1)c1ccc2c(c1)OCO2 (stereo unspecified) | 88.5

Tested on: Digitaria sanguinalis
Test: Pre-emergence herbicidal activity against Digitaria sanguinalis (hairy crabgrass) assessed as growth inhibition at 1.5 ai kg/ha under green house conditions
Assay type: functional

SMILES | growth inhibition (GI) [%]
COP(=O)(OC)C(C)OC(=O)COc1cccc(Cl)c1Cl (stereo unspecified) | 0
COP(=O)(OC)C(C)OC(=O)COc1cccc(F)c1 (stereo unspecified) | 0
COP(=O)(OC)C(C)OC(=O)COc1ccc(F)cc1F (stereo unspecified) | 73.6
COP(=O)(OC)C(C)OC(=O)COc1cc(F)cc(F)c1 (stereo unspecified) | 0
COP(=O)(OC)C(OC(=O)COc1cccc(C(F)(F)F)c1)c1ccc(C)cc1 (stereo unspecified) | 95.7
COP(=O)(OC)C(OC(=O)COc1cccc(C(F)(F)F)c1)c1ccccc1Cl (stereo unspecified) | 97.9
COP(=O)(OC)C(OC(=O)COc1cccc(C(F)(F)F)c1)c1ccc(Cl)cc1 (stereo unspecified) | 91.5
COP(=O)(OC)C(OC(=O)COc1ccc([N+](=O)[O-])cc1)c1ccccc1 (stereo unspecified) | 0
COP(=O)(OC)C(C)OC(=O)COc1ccccc1 (stereo unspecified) | 0
CCOP(=O)(OCC)C(OC(=O)COc1cccc(C(F)(F)F)c1)c1ccc2c(c1)OCO2 (stereo unspecified) | 100

Tested on: Medicago sativa
Test: Post-emergence herbicidal activity against Medicago sativa (alfalfa) assessed as growth inhibition at 1.5 ai kg/ha under green house conditions
Assay type: functional

SMILES | growth inhibition (GI) [%]
COP(=O)(OC)C(C)OC(=O)COc1cccc(Cl)c1Cl (stereo unspecified) | 0
COP(=O)(OC)C(C)OC(=O)COc1cccc(F)c1 (stereo unspecified) | 0
COP(=O)(OC)C(C)OC(=O)COc1ccc(F)cc1F (stereo unspecified) | 49.4
COP(=O)(OC)C(C)OC(=O)COc1cc(F)cc(F)c1 (stereo unspecified) | 0
COP(=O)(OC)C(OC(=O)COc1cccc(C(F)(F)F)c1)c1ccc(C)cc1 (stereo unspecified) | 91.2
COP(=O)(OC)C(OC(=O)COc1cccc(C(F)(F)F)c1)c1ccccc1Cl (stereo unspecified) | 100
COP(=O)(OC)C(OC(=O)COc1cccc(C(F)(F)F)c1)c1ccc(Cl)cc1 (stereo unspecified) | 100
COP(=O)(OC)C(C)OC(=O)COc1ccccc1 (stereo unspecified) | 9.4
CCOP(=O)(OCC)C(OC(=O)COc1cccc(C(F)(F)F)c1)c1ccc2c(c1)OCO2 (stereo unspecified) | 100

Tested on: Brassica napus
Test: Post-emergence herbicidal activity against Brassica napus (oilseed rape) assessed as growth inhibition at 1.5 ai kg/ha under green house conditions
Assay type: functional

SMILES | growth inhibition (GI) [%]
COP(=O)(OC)C(C)OC(=O)COc1cccc(Cl)c1Cl (stereo unspecified) | 23.3
COP(=O)(OC)C(C)OC(=O)COc1cccc(F)c1 (stereo unspecified) | 0
COP(=O)(OC)C(C)OC(=O)COc1ccc(F)cc1F (stereo unspecified) | 61
COP(=O)(OC)C(C)OC(=O)COc1cc(F)cc(F)c1 (stereo unspecified) | 0
COP(=O)(OC)C(OC(=O)COc1cccc(C(F)(F)F)c1)c1ccc(C)cc1 (stereo unspecified) | 14.2
COP(=O)(OC)C(OC(=O)COc1cccc(C(F)(F)F)c1)c1ccccc1Cl (stereo unspecified) | 54.6
COP(=O)(OC)C(OC(=O)COc1cccc(C(F)(F)F)c1)c1ccc(Cl)cc1 (stereo unspecified) | 57.4
COP(=O)(OC)C(OC(=O)COc1ccc([N+](=O)[O-])cc1)c1ccccc1 (stereo unspecified) | 5.49
COP(=O)(OC)C(C)OC(=O)COc1ccccc1 (stereo unspecified) | 21
CCOP(=O)(OCC)C(OC(=O)COc1cccc(C(F)(F)F)c1)c1ccc2c(c1)OCO2 (stereo unspecified) | 61.7

Tested on: Echinochloa crus-galli
Test: Post-emergence herbicidal activity against Echinochloa crus-galli (barnyard grass) assessed as growth inhibition at 1.5 ai kg/ha under green house conditions
Assay type: functional

SMILES | growth inhibition (GI) [%]
COP(=O)(OC)C(C)OC(=O)COc1cccc(Cl)c1Cl (stereo unspecified) | 13.6
COP(=O)(OC)C(C)OC(=O)COc1cccc(F)c1 (stereo unspecified) | 17.8
COP(=O)(OC)C(C)OC(=O)COc1ccc(F)cc1F (stereo unspecified) | 20.2
COP(=O)(OC)C(C)OC(=O)COc1cc(F)cc(F)c1 (stereo unspecified) | 3.8
COP(=O)(OC)C(OC(=O)COc1cccc(C(F)(F)F)c1)c1ccc(C)cc1 (stereo unspecified) | 23.6
COP(=O)(OC)C(OC(=O)COc1cccc(C(F)(F)F)c1)c1ccccc1Cl (stereo unspecified) | 23.5
COP(=O)(OC)C(OC(=O)COc1cccc(C(F)(F)F)c1)c1ccc(Cl)cc1 (stereo unspecified) | 0
COP(=O)(OC)C(OC(=O)COc1ccc([N+](=O)[O-])cc1)c1ccccc1 (stereo unspecified) | 0
COP(=O)(OC)C(C)OC(=O)COc1ccccc1 (stereo unspecified) | 12
CCOP(=O)(OCC)C(OC(=O)COc1cccc(C(F)(F)F)c1)c1ccc2c(c1)OCO2 (stereo unspecified) | 0

Tested on: Medicago sativa
Test: Pre-emergence herbicidal activity against Medicago sativa (alfalfa) assessed as growth inhibition at 1.5 ai kg/ha under green house conditions
Assay type: functional

SMILES | growth inhibition (GI) [%]
COP(=O)(OC)C(C)OC(=O)COc1cccc(Cl)c1Cl (stereo unspecified) | 8.3
COP(=O)(OC)C(C)OC(=O)COc1cccc(F)c1 (stereo unspecified) | 0
COP(=O)(OC)C(C)OC(=O)COc1ccc(F)cc1F (stereo unspecified) | 52.1
COP(=O)(OC)C(C)OC(=O)COc1cc(F)cc(F)c1 (stereo unspecified) | 10.4
COP(=O)(OC)C(OC(=O)COc1cccc(C(F)(F)F)c1)c1ccc(C)cc1 (stereo unspecified) | 100
COP(=O)(OC)C(OC(=O)COc1cccc(C(F)(F)F)c1)c1ccccc1Cl (stereo unspecified) | 100
COP(=O)(OC)C(OC(=O)COc1cccc(C(F)(F)F)c1)c1ccc(Cl)cc1 (stereo unspecified) | 89.8
COP(=O)(OC)C(C)OC(=O)COc1ccccc1 (stereo unspecified) | 27.2
CCOP(=O)(OCC)C(OC(=O)COc1cccc(C(F)(F)F)c1)c1ccc2c(c1)OCO2 (stereo unspecified) | 93.2
